Laboratory results as given in paper PMC4979471 (Cell Death Discovery, 2015).
Where two headings read alike, the source gives them in different places.

What was measured:
Assay in all cases: Kinase selectivity, P33-radiolabeled assay
Format in all cases: biochemical
Settings in all cases: 10 μM ATP
BRAF = molecular target: T1, BRAF (Homo sapiens, UniProt P15056)
T1 construct: purchased Reaction Biology Corp
How it was run: (§1)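 Reactions contained 10 μM ATP and 10 μM test compound, each run in duplicate. Kinase activity is expressed as a percentage of DMSO-treated controls.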

TRKC = molecular target: T2, TRKC (Homo sapiens, UniProt Q16288)
T2 construct: purchased Reaction Biology Corp
How it was run: as §1

CDK1/cyclin A = molecular target: T3, CDK1/cyclin A (Homo sapiens, UniProt P06493)
T3 construct: purchased Reaction Biology Corp
How it was run: as §1

PKN1/PRK1 = molecular target: T4, PKN1/PRK1 (Homo sapiens, UniProt Q16512)
T4 construct: purchased Reaction Biology Corp
How it was run: as §1

ERBB4/HER4 = molecular target: T5, ERBB4/HER4 (Homo sapiens, UniProt Q15303)
T5 construct: purchased Reaction Biology Corp
How it was run: as §1

P38d/MAPK13 = molecular target: T6, P38d/MAPK13 (Homo sapiens, UniProt O15264)
T6 construct: purchased Reaction Biology Corp
T6 sequence (O15264 1-365): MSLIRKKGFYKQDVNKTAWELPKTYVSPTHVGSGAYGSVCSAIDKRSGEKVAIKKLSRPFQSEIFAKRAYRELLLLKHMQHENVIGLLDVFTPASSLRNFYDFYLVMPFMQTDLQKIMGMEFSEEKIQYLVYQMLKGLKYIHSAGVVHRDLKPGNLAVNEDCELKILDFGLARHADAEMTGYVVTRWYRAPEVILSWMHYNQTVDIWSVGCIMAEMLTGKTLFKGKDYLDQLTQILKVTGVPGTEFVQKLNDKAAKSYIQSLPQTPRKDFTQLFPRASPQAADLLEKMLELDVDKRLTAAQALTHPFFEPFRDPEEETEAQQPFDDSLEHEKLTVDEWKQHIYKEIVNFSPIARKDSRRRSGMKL
How it was run: as §1

CDK4/cyclin D1 = molecular target: T7, CDK4/cyclin D1 (Homo sapiens, UniProt P11802)
T7 construct: purchased Reaction Biology Corp
How it was run: as §1

COT1/MAP3K8 = molecular target: T8, COT1/MAP3K8 (Homo sapiens, UniProt P41279)
T8 construct: purchased Reaction Biology Corp
How it was run: as §1

PKN2/PRK2 = molecular target: T9, PKN2/PRK2 (Homo sapiens, UniProt Q16513)
T9 construct: purchased Reaction Biology Corp
How it was run: as §1

GRK1 = molecular target: T10, GRK1 (Homo sapiens, UniProt Q15835)
T10 construct: purchased Reaction Biology Corp
T10 sequence (Q15835 1-563): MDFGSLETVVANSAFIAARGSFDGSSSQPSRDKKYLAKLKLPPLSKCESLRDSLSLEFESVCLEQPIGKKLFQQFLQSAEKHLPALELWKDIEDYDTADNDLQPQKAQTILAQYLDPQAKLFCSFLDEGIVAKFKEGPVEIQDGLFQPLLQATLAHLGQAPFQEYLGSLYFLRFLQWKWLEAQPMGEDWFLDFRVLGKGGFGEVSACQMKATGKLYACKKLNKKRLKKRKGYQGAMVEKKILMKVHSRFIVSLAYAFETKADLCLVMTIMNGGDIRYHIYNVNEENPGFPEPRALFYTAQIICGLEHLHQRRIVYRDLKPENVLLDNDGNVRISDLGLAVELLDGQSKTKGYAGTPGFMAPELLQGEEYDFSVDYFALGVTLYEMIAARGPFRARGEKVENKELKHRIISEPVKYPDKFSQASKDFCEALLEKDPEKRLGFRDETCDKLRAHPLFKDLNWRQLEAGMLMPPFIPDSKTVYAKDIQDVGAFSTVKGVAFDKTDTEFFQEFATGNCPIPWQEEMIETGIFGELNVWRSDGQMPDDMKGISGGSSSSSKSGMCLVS
How it was run: as §1

WNK1 = molecular target: T11, WNK1 (Homo sapiens, UniProt Q9H4A3)
T11 construct: purchased Reaction Biology Corp
How it was run: as §1

MLK1/MAP3K9 = molecular target: T12, MLK1/MAP3K9 (Homo sapiens, UniProt P80192)
T12 construct: purchased Reaction Biology Corp
How it was run: as §1

BRSK2 = molecular target: T13, BRSK2 (Homo sapiens, UniProt Q8IWQ3)
T13 construct: purchased Reaction Biology Corp
T13 sequence (Q8IWQ3 1-736): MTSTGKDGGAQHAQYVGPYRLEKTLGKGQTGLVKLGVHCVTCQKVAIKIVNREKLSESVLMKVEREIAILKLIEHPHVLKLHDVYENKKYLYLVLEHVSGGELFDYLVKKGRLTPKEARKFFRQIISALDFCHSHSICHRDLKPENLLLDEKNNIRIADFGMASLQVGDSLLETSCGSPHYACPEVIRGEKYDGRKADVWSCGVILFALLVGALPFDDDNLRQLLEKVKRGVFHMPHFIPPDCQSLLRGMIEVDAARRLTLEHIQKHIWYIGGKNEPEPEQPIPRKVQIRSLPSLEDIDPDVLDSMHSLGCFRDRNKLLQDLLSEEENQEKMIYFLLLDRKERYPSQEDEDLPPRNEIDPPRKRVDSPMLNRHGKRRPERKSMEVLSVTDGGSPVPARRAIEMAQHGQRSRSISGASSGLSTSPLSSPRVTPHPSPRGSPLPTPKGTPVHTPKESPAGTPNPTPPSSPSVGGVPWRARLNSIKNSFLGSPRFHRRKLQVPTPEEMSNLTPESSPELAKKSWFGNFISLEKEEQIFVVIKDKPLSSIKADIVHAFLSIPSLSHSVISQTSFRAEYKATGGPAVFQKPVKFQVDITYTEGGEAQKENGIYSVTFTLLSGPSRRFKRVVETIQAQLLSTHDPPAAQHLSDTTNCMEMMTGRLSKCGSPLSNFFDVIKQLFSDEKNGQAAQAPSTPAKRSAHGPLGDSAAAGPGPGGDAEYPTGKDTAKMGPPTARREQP
How it was run: as §1

[1] = read-out: % Enzyme Activity (relative to DMSO controls) AVG
[2] = read-out: % Enzyme Activity (relative to DMSO controls) Data 1
[3] = read-out: % Enzyme Activity (relative to DMSO controls) Data 2

T9 sequence (Q16513 whole entry): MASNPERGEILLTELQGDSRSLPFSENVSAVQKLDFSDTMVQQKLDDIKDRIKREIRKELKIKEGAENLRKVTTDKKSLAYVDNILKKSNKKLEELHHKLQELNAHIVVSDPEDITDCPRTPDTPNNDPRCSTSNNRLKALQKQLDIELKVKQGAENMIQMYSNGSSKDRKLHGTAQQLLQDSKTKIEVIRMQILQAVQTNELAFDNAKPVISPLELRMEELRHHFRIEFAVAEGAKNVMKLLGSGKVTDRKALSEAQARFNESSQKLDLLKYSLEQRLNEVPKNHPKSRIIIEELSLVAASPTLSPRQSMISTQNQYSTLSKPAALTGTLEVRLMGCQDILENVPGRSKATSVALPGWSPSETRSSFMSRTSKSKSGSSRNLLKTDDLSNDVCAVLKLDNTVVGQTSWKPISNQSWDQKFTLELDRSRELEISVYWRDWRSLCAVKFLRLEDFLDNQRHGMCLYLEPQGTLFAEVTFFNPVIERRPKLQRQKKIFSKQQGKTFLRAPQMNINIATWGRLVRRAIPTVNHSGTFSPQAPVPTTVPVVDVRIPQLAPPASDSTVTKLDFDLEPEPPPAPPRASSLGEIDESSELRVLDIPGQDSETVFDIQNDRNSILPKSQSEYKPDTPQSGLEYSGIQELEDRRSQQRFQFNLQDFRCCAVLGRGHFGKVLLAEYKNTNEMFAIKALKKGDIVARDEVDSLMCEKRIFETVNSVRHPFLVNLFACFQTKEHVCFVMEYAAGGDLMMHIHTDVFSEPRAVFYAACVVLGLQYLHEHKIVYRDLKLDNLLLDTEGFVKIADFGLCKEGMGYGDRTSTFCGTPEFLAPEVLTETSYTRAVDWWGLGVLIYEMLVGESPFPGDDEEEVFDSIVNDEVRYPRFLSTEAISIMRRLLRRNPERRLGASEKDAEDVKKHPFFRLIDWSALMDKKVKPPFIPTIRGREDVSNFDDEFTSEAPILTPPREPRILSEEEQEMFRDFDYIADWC
T11 sequence (Q9H4A3 whole entry): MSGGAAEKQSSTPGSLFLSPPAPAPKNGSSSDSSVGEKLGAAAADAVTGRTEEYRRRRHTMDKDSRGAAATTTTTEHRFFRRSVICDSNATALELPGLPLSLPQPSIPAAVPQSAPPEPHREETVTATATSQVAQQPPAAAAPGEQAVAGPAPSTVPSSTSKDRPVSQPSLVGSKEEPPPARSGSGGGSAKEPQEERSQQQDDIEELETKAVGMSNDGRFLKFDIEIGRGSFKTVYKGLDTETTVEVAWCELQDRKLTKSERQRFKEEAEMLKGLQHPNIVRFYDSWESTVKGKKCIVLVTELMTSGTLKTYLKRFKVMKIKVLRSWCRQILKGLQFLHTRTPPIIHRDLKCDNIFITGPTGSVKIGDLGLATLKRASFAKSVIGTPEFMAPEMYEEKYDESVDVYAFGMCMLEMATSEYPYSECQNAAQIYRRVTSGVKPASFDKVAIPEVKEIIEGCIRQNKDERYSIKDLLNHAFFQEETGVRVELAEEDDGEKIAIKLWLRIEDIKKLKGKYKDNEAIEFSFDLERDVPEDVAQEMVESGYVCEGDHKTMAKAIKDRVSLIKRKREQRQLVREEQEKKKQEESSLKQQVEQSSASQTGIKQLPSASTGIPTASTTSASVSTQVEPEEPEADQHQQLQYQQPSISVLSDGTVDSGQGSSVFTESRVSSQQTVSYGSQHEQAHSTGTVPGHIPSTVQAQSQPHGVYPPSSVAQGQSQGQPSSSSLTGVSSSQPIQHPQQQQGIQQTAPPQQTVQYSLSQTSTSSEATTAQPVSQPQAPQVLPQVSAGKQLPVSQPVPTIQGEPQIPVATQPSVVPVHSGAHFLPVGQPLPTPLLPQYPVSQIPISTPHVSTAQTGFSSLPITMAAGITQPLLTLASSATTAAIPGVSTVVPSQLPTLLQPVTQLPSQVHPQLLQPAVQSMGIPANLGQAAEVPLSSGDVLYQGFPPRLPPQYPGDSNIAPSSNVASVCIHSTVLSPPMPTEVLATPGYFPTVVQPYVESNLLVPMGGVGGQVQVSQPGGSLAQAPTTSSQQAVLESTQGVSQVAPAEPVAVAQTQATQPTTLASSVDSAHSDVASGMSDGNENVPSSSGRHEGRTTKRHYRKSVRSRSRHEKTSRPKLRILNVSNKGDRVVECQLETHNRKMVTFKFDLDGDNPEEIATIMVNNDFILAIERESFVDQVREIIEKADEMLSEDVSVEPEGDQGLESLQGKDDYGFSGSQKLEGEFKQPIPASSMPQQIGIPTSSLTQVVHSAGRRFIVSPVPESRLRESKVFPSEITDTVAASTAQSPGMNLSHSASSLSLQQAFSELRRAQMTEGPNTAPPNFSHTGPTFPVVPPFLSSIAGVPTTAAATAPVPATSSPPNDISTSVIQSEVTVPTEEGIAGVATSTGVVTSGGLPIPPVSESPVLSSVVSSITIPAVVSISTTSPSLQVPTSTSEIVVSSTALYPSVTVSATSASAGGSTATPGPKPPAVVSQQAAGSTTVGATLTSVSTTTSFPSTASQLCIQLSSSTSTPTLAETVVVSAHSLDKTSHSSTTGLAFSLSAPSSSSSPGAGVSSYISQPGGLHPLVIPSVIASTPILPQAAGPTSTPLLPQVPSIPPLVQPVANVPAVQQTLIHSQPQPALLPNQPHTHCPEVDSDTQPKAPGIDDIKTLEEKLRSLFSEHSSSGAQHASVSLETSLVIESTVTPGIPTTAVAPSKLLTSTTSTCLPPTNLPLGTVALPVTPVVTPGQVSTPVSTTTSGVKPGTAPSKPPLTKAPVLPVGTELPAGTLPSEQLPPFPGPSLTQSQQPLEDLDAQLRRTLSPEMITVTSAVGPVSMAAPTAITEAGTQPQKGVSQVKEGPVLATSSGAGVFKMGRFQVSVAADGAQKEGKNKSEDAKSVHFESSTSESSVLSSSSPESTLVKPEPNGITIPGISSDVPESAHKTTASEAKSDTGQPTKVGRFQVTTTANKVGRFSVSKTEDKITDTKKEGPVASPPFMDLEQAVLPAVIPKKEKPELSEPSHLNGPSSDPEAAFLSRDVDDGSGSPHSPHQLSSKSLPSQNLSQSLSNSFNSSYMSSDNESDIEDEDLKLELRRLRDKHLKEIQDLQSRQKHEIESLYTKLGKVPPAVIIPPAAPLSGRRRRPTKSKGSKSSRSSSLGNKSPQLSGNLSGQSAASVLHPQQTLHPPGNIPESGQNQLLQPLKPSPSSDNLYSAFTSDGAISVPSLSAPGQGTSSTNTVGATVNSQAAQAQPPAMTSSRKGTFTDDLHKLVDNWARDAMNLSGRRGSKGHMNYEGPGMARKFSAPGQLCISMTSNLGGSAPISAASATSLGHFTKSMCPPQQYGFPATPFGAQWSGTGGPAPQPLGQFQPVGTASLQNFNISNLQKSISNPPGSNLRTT
T5 sequence (Q15303 26-1308): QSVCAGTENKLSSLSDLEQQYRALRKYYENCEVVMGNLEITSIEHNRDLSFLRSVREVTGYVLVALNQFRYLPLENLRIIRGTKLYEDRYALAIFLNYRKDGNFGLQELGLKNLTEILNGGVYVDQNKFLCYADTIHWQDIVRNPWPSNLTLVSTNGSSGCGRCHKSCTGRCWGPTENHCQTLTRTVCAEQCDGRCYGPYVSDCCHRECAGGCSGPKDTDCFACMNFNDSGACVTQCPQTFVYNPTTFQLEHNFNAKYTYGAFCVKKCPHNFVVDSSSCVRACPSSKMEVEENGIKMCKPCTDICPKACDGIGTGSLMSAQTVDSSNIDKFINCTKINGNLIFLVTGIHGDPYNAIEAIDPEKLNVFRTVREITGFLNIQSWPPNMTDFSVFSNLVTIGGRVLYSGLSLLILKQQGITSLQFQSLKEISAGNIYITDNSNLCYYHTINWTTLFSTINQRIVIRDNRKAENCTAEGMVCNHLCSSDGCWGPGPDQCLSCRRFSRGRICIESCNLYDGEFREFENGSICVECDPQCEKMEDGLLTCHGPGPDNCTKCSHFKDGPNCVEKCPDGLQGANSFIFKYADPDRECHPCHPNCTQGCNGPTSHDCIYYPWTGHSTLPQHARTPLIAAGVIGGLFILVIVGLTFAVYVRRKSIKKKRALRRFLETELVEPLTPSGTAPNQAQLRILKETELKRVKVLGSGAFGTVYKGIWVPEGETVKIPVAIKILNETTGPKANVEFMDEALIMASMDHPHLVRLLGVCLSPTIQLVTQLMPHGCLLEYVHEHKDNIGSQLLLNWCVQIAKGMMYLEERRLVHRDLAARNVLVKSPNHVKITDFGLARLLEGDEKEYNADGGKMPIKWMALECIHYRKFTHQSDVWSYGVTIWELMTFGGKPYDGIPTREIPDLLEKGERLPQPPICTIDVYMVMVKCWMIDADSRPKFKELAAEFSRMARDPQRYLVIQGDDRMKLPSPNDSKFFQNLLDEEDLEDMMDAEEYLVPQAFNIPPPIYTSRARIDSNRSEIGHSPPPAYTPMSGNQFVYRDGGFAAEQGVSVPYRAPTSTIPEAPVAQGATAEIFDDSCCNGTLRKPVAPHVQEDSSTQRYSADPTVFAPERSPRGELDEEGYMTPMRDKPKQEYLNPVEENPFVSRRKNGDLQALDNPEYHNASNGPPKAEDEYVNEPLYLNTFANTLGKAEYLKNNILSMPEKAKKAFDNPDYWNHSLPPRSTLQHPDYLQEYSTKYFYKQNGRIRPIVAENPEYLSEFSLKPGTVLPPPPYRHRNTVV
T8 sequence (P41279 whole entry): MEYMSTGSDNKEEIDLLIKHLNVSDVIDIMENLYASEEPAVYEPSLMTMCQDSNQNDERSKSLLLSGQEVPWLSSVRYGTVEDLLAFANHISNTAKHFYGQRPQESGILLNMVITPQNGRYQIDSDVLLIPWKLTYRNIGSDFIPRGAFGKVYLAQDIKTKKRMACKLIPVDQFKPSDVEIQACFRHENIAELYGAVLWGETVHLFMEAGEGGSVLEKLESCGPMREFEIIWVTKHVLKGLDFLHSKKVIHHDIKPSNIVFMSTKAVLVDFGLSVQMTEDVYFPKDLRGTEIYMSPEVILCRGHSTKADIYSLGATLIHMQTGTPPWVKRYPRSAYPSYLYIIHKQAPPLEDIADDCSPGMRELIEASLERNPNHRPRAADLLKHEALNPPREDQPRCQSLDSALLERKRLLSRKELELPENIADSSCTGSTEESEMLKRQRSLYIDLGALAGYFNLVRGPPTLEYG

CC(C)(C)C(=O)N1N=CC[C@H]1c1ccccc1 [GSK′963]
remaining activity at 10 µM (BRAF; [1]): 89.4% | remaining activity at 10 µM (BRAF; [2]): 89.4% | remaining activity at 10 µM (BRAF; [3]): 89.4% | remaining activity at 10 µM (TRKC; [1]): 99.2% | remaining activity at 10 µM (TRKC; [2]): 100% | remaining activity at 10 µM (TRKC; [3]): 98% | remaining activity at 10 µM (CDK1/cyclin A; [1]): 105% | remaining activity at 10 µM (CDK1/cyclin A; [2]): 107% | remaining activity at 10 µM (CDK1/cyclin A; [3]): 102% | remaining activity at 10 µM (PKN1/PRK1; [1]): 103% | remaining activity at 10 µM (PKN1/PRK1; [2]): 104% | remaining activity at 10 µM (PKN1/PRK1; [3]): 102% | remaining activity at 10 µM (ERBB4/HER4; [1]): 102% | remaining activity at 10 µM (ERBB4/HER4; [2]): 101% | remaining activity at 10 µM (ERBB4/HER4; [3]): 104% | remaining activity at 10 µM (P38d/MAPK13; [1]): 100% | remaining activity at 10 µM (P38d/MAPK13; [2]): 99.8% | remaining activity at 10 µM (P38d/MAPK13; [3]): 101% | remaining activity at 10 µM (CDK4/cyclin D1; [1]): 96.7% | remaining activity at 10 µM (CDK4/cyclin D1; [2]): 94.5% | remaining activity at 10 µM (CDK4/cyclin D1; [3]): 98.9% | remaining activity at 10 µM (COT1/MAP3K8; [1]): 87.1% | remaining activity at 10 µM (COT1/MAP3K8; [2]): 86.6% | remaining activity at 10 µM (COT1/MAP3K8; [3]): 87.5% | remaining activity at 10 µM (PKN2/PRK2; [1]): 93.3% | remaining activity at 10 µM (PKN2/PRK2; [2]): 97.5% | remaining activity at 10 µM (PKN2/PRK2; [3]): 89.2% | remaining activity at 10 µM (GRK1; [1]): 108% | remaining activity at 10 µM (GRK1; [2]): 109% | remaining activity at 10 µM (GRK1; [3]): 106% | remaining activity at 10 µM (WNK1; [1]): 81.7% | remaining activity at 10 µM (WNK1; [2]): 78.3% | remaining activity at 10 µM (WNK1; [3]): 85.1% | remaining activity at 10 µM (MLK1/MAP3K9; [1]): 110% | remaining activity at 10 µM (MLK1/MAP3K9; [2]): 108% | remaining activity at 10 µM (MLK1/MAP3K9; [3]): 112% | remaining activity at 10 µM (BRSK2; [1]): 104% | remaining activity at 10 µM (BRSK2; [2]): 109% | remaining activity at 10 µM (BRSK2; [3]): 98.7%
